The target in this assay is T1, CB1 receptor (Homo sapiens, UniProt P21554).
T1 construct: expressed in transfected cells
Kind of assay: [35S]-GTPγS binding assay on membranes from cells stably transfected with the CB1 gene, inhibition of agonist CP55940 (EC80). It is filed as biochemical. Conditions: half maximal inhibition of GTPγS binding in presence of EC80 concentration of CP55940; 30° C., 45 min. Here is the method:
The compound of the present invention is active against the receptor product of the CB1 gene. The affinity of the compounds of the invention for central cannabinoid receptors is demonstrable in methods described in Devane et al, Molecular Pharmacology, 1988, 34,605 or those described in WO01/70700 or EP 656354. Alternatively the assay may be performed as follows.
10 μg of membranes prepared from cells stably transfected with the CB1 gene were suspended in 200 μl of 100 mM NaCl, 5 mM MgCl2, 1 mM EDTA, 50 mM HEPES (pH 7.4), 1 mM DTT, 0.1% BSA and 100 μM GDP. To this was added an EC80 concentration of agonist (CP55940), the required concentration of test compound and 0.1 μCi [^35S]-GTPγS. The reaction was allowed to proceed at 30° C. for 45 min. […] Filters were then covered with scintilant and counted for the amount of [^35S]-GTPγS retained by the filter.
Activity is measured in the absence of all ligands (minimum activity) or in the presence of an EC80 concentration of CP55940 (maximum activity). […] At various concentrations of novel ligand, activity is calculated as a percentage of the maximum activity and plotted. The data are fitted using the equation y=A+((B−A)/1+((C/x) ÙD)) and the IC50 value determined as the concentration required to give half maximal inhibition of GTPγS binding under the conditions used.

For orientation: IC50 means the concentration at which inhibition is half-maximal.

T1 sequence (P21554 whole entry): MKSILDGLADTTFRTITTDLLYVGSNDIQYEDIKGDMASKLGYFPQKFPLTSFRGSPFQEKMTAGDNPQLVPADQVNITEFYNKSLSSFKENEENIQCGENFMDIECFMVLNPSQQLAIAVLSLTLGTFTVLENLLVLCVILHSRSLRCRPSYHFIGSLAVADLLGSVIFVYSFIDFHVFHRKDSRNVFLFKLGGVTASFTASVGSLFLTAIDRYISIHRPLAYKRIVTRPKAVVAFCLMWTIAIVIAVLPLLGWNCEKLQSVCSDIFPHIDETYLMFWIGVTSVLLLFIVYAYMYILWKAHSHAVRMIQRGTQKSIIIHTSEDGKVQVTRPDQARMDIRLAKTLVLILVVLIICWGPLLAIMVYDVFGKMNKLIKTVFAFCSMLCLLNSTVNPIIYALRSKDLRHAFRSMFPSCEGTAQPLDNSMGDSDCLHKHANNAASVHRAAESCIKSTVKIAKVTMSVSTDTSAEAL

Consider `O=C(N[C@@H]1CCCC[C@@H]1O)c1nn(-c2ccc(Cl)cc2Cl)c(-c2ccc(OS(=O)(=O)CCC(F)(F)F)cc2)c1CO` (single isomer, unassigned) [Example 1, (−)3,3,3-Trifluoro-propane-1-sulfonic acid 4-[2-(2,4-dichloro-phenyl)-5-(2-hydroxy-cyclohexylcarbamoyl)-4-hydroxymethyl-2H-pyrazol-3-yl]-phenyl ester], for which the IC50 was 2.3 nM.

(Values after patent US20100234438A1, “THERAPEUTIC AGENTS” (priority 2006, published 2010).)
